{"source": "patent US12285012B2", "about": "“Compositions comprising pyridine carboxylate herbicides with acetolactate synthase (ALS) inhibitor herbicides” (Corteva Agriscience LLC, priority 2018, dated 2025)", "assay_in_all_cases": "Greenhouse postemergence herbicidal effect", "format_in_all_cases": "in vivo", "key": {"[1]": {"tested_on": "spring rape (BRSNN, Brassica napus)", "outline": "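Injury was rated visually after 20-22 d on a 0 (none) to 100% (complete kill) scale relative to solvent-sprayed controls, with sub-irrigation to avoid wash-off. Rates were given in g ae/ha or g ai/ha depending on component.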"}, "[2]": {"tested_on": "Italian ryegrass (LOLMU, Lolium multiflorum)", "settings": "Compound A 10 g/ha; safener mefenpyr-diethyl", "outline": "(§1)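 Plants at second or third true leaf stage, greenhouse-grown (~14 h photoperiod, about 23/22° C), sprayed at 187 L/ha with pyridine carboxylate herbicide (g ae/ha; with cloquintocet-mexyl safener unless noted) alone or plus ALS herbicide (g ai/ha) in 1.25% v/v oil adjuvant. Visual injury, 0 to 100% versus solvent-blank controls, after 20-22 d.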"}, "[3]": {"tested_on": "annual ryegrass (LOLMG=Lolium multiflorum subsp. gaudini)", "settings": "10 g/ha", "outline": "(§2)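 Greenhouse plants at the second–third true leaf received overhead sprays (187 L/ha) of herbicide mixtures containing safener and oil adjuvant. Percent control or crop injury was judged by eye 20–22 d later on a 0–100 scale.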"}, "[4]": {"tested_on": "barnyard grass (ECHCG, Echinochloa crus-galli)", "settings": "Compound A 10 g/ha", "outline": "as §1"}, "[5]": {"tested_on": "blackgrass (ALOMY, Alopecurus myosuroides)", "settings": "Compound A 10 g/ha; safener mefenpyr-diethyl", "outline": "as §1"}, "[6]": {"tested_on": "broadleaf signalgrass (BRAPP, Brachiaria platyphylla)", "settings": "Compound A 10 g/ha", "outline": "as §2"}, "[7]": {"tested_on": "giant foxtail (SETFA, Setaria faberi)", "outline": "as §1"}, "[8]": {"tested_on": "grain sorghum (SORVU, Sorghum vulgare)", "settings": "Compound A 10 g/ha", "outline": "as §1"}, "[9]": {"tested_on": "nutsedge (CYPES, Cyperus esculentus)", "outline": "as §1"}, "[10]": {"tested_on": "poinsettia (EPHHL, Euphorbia heterophylla)", "outline": "as §2"}, "[11]": {"tested_on": "small-flower flatsedge (CYPDI, Cyperus difformis)", "settings": "Compound A 10 g/ha", "outline": "as §2"}, "[12]": {"tested_on": "wild oat (AVEFA, Avena fatua)", "outline": "as §1"}, "[13]": {"settings": "Compound A 10 g/ha, safener mefenpyr-diethyl"}}, "note": "“And” between values parts separate entries of the source, which are not always exact repeats. Equal values may be shown once.", "data": [{"smiles": "N#CCOC(=O)c1nc(-c2ccc3cc[nH]c3c2F)c(F)c(N)c1Cl", "note": "[Compound A, cyanomethyl 4-amino-3-chloro-5-fluoro-6-(7-fluoro-1H-indol-6-yl)pyridine-2-carboxylate]", "values": [{"measurement": "% visual injury, Obs", "setting": "[1]; 10 g/ha", "result": "73% and 70% and 60%"}, {"measurement": "% visual injury, Obs", "setting": "[1]; BRSNN, Compound A 10 g/ha", "result": 60, "unit": "%"}, {"measurement": "Obs % visual injury", "setting": "[1]; BRSNN, Compound A 10 g/ha", "result": 55, "unit": "%"}, {"measurement": "Obs % visual injury", "setting": "[1]; BRSNN, Compound A 10 g/ha (Table 65)", "result": 55, "unit": "%"}, {"measurement": "% visual injury", "setting": "[1]; Compound A 10 g/ha", "result": 65, "unit": "%"}, {"measurement": "% visual injury Obs", "setting": "[1]; Compound A 10 g/ha", "result": 60, "unit": "%"}, {"measurement": "% visual injury, Obs", "setting": "[1]; Compound A 10 g/ha", "result": 55, "unit": "%"}, {"measurement": "BRSNN % visual injury Obs", "setting": "[1]; Compound A 10 g/ha (Examples 62-63)", "result": 55, "unit": "%"}, {"measurement": "% visual injury, Obs", "setting": "[1]; [13]", "result": 78, "unit": "%"}, {"measurement": "BRSNN % visual injury Obs", "setting": "[1]; [13]", "result": 78, "unit": "%"}, {"measurement": "% visual injury, Obs", "setting": "[2]", "result": 10, "unit": "%"}, {"measurement": "LOLMU % visual injury Obs", "setting": "[2]", "result": 10, "unit": "%"}, {"measurement": "% visual injury, Obs", "setting": "[3]", "result": 3, "unit": "%"}, {"measurement": "% visual injury Obs", "setting": "[4]", "result": 85, "unit": "%"}, {"measurement": "% visual injury, Obs", "setting": "[4]; safener mefenpyr-diethyl", "result": 85, "unit": "%"}, {"measurement": "ECHCG % visual injury Obs", "setting": "[4]; safener mefenpyr-diethyl", "result": 85, "unit": "%"}, {"measurement": "% visual injury, Obs", "setting": "[5]", "result": 13, "unit": "%"}, {"measurement": "ALOMY % visual injury Obs", "setting": "[5]", "result": 13, "unit": "%"}, {"measurement": "% visual injury Obs", "setting": "[6]", "result": 68, "unit": "%"}, {"measurement": "% visual injury, Obs", "setting": "[7]; 10 g/ha", "result": 0, "unit": "%"}, {"measurement": "% visual injury, Obs", "setting": "[7]; [13]", "result": 80, "unit": "%"}, {"measurement": "SETFA % visual injury Obs", "setting": "[7]; [13]", "result": 80, "unit": "%"}, {"measurement": "% visual injury", "setting": "[8]", "result": 0, "unit": "%"}, {"measurement": "% visual injury, Obs", "setting": "[8]; safener mefenpyr-diethyl", "result": 10, "unit": "%"}, {"measurement": "SORVU % visual injury Obs", "setting": "[8]; safener mefenpyr-diethyl", "result": 10, "unit": "%"}, {"measurement": "% visual injury, Obs", "setting": "[9]; 10 g/ha", "result": 45, "unit": "%"}, {"measurement": "% visual injury", "setting": "[9]; Compound A 10 g/ha", "result": 8, "unit": "%"}, {"measurement": "% visual injury, Obs", "setting": "[9]; [13]", "result": 28, "unit": "%"}, {"measurement": "CYPES % visual injury Obs", "setting": "[9]; [13]", "result": 28, "unit": "%"}, {"measurement": "% visual injury, Obs", "setting": "[10]; 10 g/ha", "result": 83, "unit": "%"}, {"measurement": "% visual injury", "setting": "[10]; Compound A 10 g/ha", "result": 97, "unit": "%"}, {"measurement": "% visual injury Obs", "setting": "[11]", "result": 72, "unit": "%"}, {"measurement": "% visual injury, Obs", "setting": "[12]; 10 g/ha", "result": 0, "unit": "%"}, {"measurement": "% visual injury, Obs", "setting": "[12]; [13]", "result": 0, "unit": "%"}, {"measurement": "AVEFA % visual injury Obs", "setting": "[12]; [13]", "result": 0, "unit": "%"}]}]}
